Reference: patent EP4596561A1, “PHOSPHORUS-CONTAINING COMPOUND, PHARMACEUTICAL COMPOSITION AND USE THEREOF” (Suzhou Genhouse Bio Co., Ltd., priority 2022, dated 2024)
Where two headings read alike, the source gives them in different places.

Columns and labels:
[1] = test system: YAP-TEAD transcription complex; assay: YAP-TEAD reporter gene assay (dual luciferase, stably transfected 293T cells); format: cell-based; conditions: Homo sapiens, HEK-293T
[2] = Saturated solubility in FaSSIF solution; format: physicochemical; conditions: room temperature, stirred overnight
Description: Efficacy Experimental Example 9: Test of Saturated Solubility of Samples in FaSSIF Solution
About 0.21 g of sodium hydroxide, about 2.24 g of sodium dihydrogen phosphate dihydrate, and 3.09 g of sodium chloride were weighed out and dissolved in 500 mL of water, and after dissolution, the pH was adjusted to 6.5 with 1 N sodium hydroxide or 1 N hydrochloric acid.
112 mg of FaSSIF solid was weighed out and placed in a 50 mL volumetric flask, and the buffer described above was added for dissolution. The resulting solution was diluted to volume, mixed well, and left to stand at room temperature for 2 h or more.
Test sample: About 1 mg of the test sample was taken, and 1 mL of FaSSIF solution was added. The mixture was stirred at room temperature overnight and centrifuged, and the supernatant was collected and injected for analysis.
Reference sample solution: About 1.5 mg of the test sample was precisely weighed out and placed in a 50 mL volumetric flask, and DMF was added for dissolution. The resulting solution was diluted to volume and mixed well.
The peak of the main component of the reference sample and the peak of the test sample with the same retention time were integrated, and the concentration thereof in the FaSSIF solution was calculated according to the external standard method.

[3] = Stability test in liver microsomes; format: in vitro ADME, SD rat; conditions: rat liver microsomes, 0.5 mg/mL, 1.0 µM substrate
Description: Phase I metabolic stability of the test compounds in liver microsomes of CD-1 mice, Sprague-Dawley rats, and humans was assessed.
The animal and human liver microsomes used in the test system were purchased from Xenotech, Corning, or other qualified suppliers and stored in a freezer at a temperature below -60 °C prior to use. The information of the animal and human liver microsomes used was as follows:
The test samples and the reference compounds were separately incubated with animal and human liver microsomes at 37±1 °C for a period of incubation time of up to 60 min. The samples were taken out at the indicated time points, and the reaction was stopped with acetonitrile or another organic solvent containing an internal standard. After centrifugation, the resulting supernatants were assayed by the liquid chromatography-tandem mass spectrometry (LC-MS/MS) method.
Microsomes of each species were diluted into a 2× working solution with a 100 mM potassium phosphate buffer. […]
Incubation was performed in a 96-well plate. Eight incubation plates were prepared and designated T0, T5, T15, T30, T45, T60, Blank60, and NCF60, respectively. The first 6 plates corresponded to reaction time points of 0 min, 5 min, 15 min, 30 min, 45 min, and 60 min, respectively. No test sample or reference compound was added to the Blank60 plate, and samples were taken after 60 min of incubation. In the NCF60 plate, incubation was performed for 60 min using the potassium phosphate buffer instead of the NADPH regeneration system solution. Three replicates were made for samples in all conditions.
The microsomes and the test sample or reference compound were mixed, and then the incubation plates Blank60, T5, T15, T30, T45, and T60 except for T0 and NCF60 were placed in a 37 °C water bath for pre-incubation for about 10 min. In the incubation plate T0, a stop solution was first added, followed by the addition of the NADPH regeneration system working solution, and 98 µL of the potassium phosphate buffer was added to each sample well of the incubation plate NCF60 to initiate the reaction. After the pre-incubation of the incubation plates Blank60, T5, T15, T30, T45, and T60 was completed, 98 µL of the NADPH regeneration system working solution was added to each sample well to initiate the reaction. The reaction temperature was 37±1 °C, the final volume of the reaction was 200 µL, and the reaction system included 0.5 mg/mL microsomes, 1.0 µM substrate, 1 mM NADP, 6 mM ISO, and 1 unit/mL IDH.
At 5 min, 15 min, 30 min, 45 min, and 60 min, a cold stop solution containing an internal standard was added to the reaction plate to stop the reaction.
All the reaction plates after the reaction was stopped were shaken well and centrifuged at 3220× g at 4 °C for 20 min. After the supernatant was diluted at a certain ratio, LC-MS/MS analysis was performed.
Sample analysis was performed by the liquid chromatography-tandem mass spectrometry (LC-MS/MS) method without standard curves and quality control samples. Semi-quantitative determination was performed according to the ratio of the analyte peak area to the internal standard peak area. The retention times of the analyte and internal standard, the chromatogram acquisition, and chromatogram integration were processed using the Analyst software (Sciex, Framingham, Massachusetts, USA).
According to the well stir model, the hepatic intrinsic clearance and hepatic clearance can be converted through the following formula. CL(liver) = (CLint(liver)×Qh)/(CLint(liver)+Qh) [formula]

[4] = 293T reporter cells, 24 h of drug treatment, read-out: IC50

| SMILES | IC50 ([1]; 24 h) [nM] | FaSSIF(pH = 6.5) [2] [ug/mL] | half-life at 1 µM [3] [h] | IC50 [1, 4] [nM] |
| --- | --- | --- | --- | --- |
| CP(C)(=O)c1ccc2c(c1)c1ccccc1n2-c1ccc(C(F)(F)F)cc1 [Example 1] | 39.7 | >950.5 | > 2.42 | – |
| CP(C)(=O)c1ccc2c(c1)c1cccnc1n2-c1ccc(C(F)(F)F)cc1 [Example 5] | – | 781.7 | – | 57.1 |
| CP(C)(=O)c1ccc2c(Oc3ccc(C(F)(F)F)cc3)cccc2c1 [Example 7] | 4.09 | 1499.5 | > 2.42 | – |
| Cn1cnc(-c2cc(P(C)(C)=O)cnc2Nc2ccc(C(F)(F)F)cc2)c1 [Example 8] | 42.4 | 433.97 | > 2.42 | – |
| CP(C)(=O)c1ccc(Nc2ccc(C(F)(F)F)cc2)c(-c2ccccn2)c1 [Example 10] | – | 89.75 | > 2.42 | 100 |
| CP(C)(=O)c1ccc(Nc2ccc(C(F)(F)F)cc2)c(-c2ncccn2)c1 [Example 12] | – | – | > 2.42 | 92.1 |
| Cn1cnc(-c2cc(P(C)(C)=O)ccc2Nc2ccc(C(F)(F)F)cc2)c1 [Example 14] | 20.2 | 674.6 | > 2.42 | – |
| CP(C)(=O)c1cnc(Nc2ccc(C(F)(F)F)cc2)c(-c2cn3c(n2)CCC3)c1 [Example 22] | 13.6 | 337.6 | > 2.42 | – |
| Cc1ccc(Oc2ccc(C(F)(F)F)cc2)c2ccc(P(C)(C)=O)cc12 [Example 24] | 135 | 193.3 | 1.37 | – |
